The text below walks through data of US11760761B2, “Methods and compositions for targeting PD-L1” (Aligos Therapeutics, Inc., priority 2020, dated 2023).

Assay [1] concerns the target PD-1/PD-L1 interaction (Homo sapiens (Human), UniProt Q9NZQ7). The experiment in a line: PD-1/PD-L1 NFAT Reporter Assay (Jurkat T cells / PD-L1 expressing CHO cells co-culture). It counts as cell-based. The settings on record: for Emax: Jurkat, maximum NFAT-activation level relative to the positive control (10 nM Atezolizumab); for EC50: co-culture 6 hrs at 37° C., luciferase. Here is the method: Blocking the PD-1/PD-L1 interaction will release the inhibitory signal and results in TCR signaling and NFAT-mediated luciferase activity.
CHO cells expressing surface-bound anti-CD3 antibodies and PD-L1 were first seeded overnight and treated with the compounds. Jurkat cells overexpressing PD-1 and a luciferase construct under NF-AT promoter were then immediately seeded on the monolayer of CHO cells. The co-culture was then incubated for 6 hrs at 37° C. Luciferase activity was assessed by adding the ONE-Glo reagent and measuring luminescence with a plate reader. EC50s values were determined from the fit of the dose-response curves Emax (%) corresponds to the maximum NFAT-activation level reached by a given compound relative to the positive control (10 nM Atezolizumab).
(In general: In a reporter assay the amount or activity of a reporter protein is the signal.)

Assay [2] deals with PDL1 (Homo sapiens (Human), UniProt Q9NZQ7). The experiment in a line: PDL1 Dimerization Assay. Type of assay: biochemical. As to conditions: 0.5 nM PDL1-6xHis, 0.5 nM PDL1-strep; read-out: PD-L1 dimerization EC50. On the procedure:
Serially diluted compounds were added to plate wells with the final concentration of DMASO at 1%. PDL1-6×His and PDL1-strep proteins were diluted in assay buffer (25 mM Hepes pH 7.4, 150 mM NaCl, 0.005% Tween 20, BSA 0.01%), added to the wells, and mixed well with the compounds. The plates were incubated for 2 h at room temperature. Anti-6×His Acceptor beads were added to the wells and the plates were further incubated for 1 h at room temperature. Strep-tactin Donor beads were added to the wells at reduced light. After additional 1 h incubation in the dark, the plates were read on a Envision reader. The final concentrations were 0.5 nM PDL1-6×His, 0.5 nM PDL1-strep, 20 ug/mL Anti-6×His Acceptor beads, 20 ug/mL Strep-tactin Donor beads. The EC50 values were determined by fitting the curves using a four-parameter equation in Graphpad Prism 8.

The target of assay [3] is PDL1/PD1 (Homo sapiens (Human), UniProt Q9NZQ7). The assay is described as follows: PDL1/PD1 Binding Assay. As to conditions: PDL1-6xHis 0.3 nM, PD1-Fc-Avi-Biotin 2.5 nM, Acceptor/Donor beads; read-out: PD-1/PD-L1 PPI IC50. Here is the method:
Compounds to be tested were serially diluted in DMSO, and further diluted in assay buffer (25 mM Hepes pH 7.4, 150 mM NaCl, 0.005% Tween 20, BSA 0.01%). Diluted compounds were added to the wells with final concentration of DMSO at 1%. PDL1-6×His protein was added to the wells, mixed well with compound. The plates were incubated for 30 min at room temperature. PD1-Fc-Avi-Biotin protein was added to the wells. Final concentration of PDL1 and PD1 protein is 0.3 nM and 2.5 nM, respectively. After a binding time of 30 min at room temperature, Anti-6×His Acceptor beads (final concentration 20 ug/ml) were added to the wells, and the incubation continued for 1 h. Streptavidin Donor beads (final concentration 20 ug/mL) were added at reduced light. The plates were sealed with foil and incubated in the dark for additional 1 h or overnight before reading on an Envision reader. The IC50 values were determined by fitting the curves using a four-parameter equation in Graphpad Prism 8.

Chain of PD-1/PD-L1 interaction (Q9NZQ7 19-290): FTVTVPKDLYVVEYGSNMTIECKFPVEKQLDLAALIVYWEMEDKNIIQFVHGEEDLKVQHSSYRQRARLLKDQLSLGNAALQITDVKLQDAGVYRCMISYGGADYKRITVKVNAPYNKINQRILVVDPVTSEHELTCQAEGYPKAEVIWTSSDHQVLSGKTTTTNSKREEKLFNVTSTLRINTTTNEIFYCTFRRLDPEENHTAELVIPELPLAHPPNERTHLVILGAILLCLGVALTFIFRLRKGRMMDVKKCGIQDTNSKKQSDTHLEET
Chain of PDL1/PD1 (Q9NZQ7 19-238): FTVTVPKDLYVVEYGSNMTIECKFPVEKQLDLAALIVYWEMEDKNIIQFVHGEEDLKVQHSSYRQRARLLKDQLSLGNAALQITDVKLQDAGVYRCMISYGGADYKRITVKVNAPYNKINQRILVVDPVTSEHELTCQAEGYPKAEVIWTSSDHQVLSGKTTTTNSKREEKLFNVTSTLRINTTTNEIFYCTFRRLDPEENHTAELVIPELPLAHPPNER
Chain of PDL1 (Q9NZQ7 19-238): as above
Chain of PDL1 (Q9NZQ7 19-238): as above

For the molecule `COc1cc(-c2cccc(-c3cccc(-c4cnc(CN5CC6(CCC(=O)N6)C5)c(OC)n4)c3Cl)c2Cl)cc2c1[C@H](NCC(=O)O)CC2` (single isomer, unassigned) [Compound B-2], the Emax (commonly the maximal effect, on the per cent scale that the assay sets) in assay [1] is 107%. Further, the EC50 (commonly the concentration that produces a half-maximal response) in assay [1] lay within 0.1 to 1 µM; in assay [2], 1 to 10 µM.

Regarding `COc1cc(-c2cccc(-c3cccc(-c4cnc(CN5CC6(CCC(=O)N6)C5)c(OC)n4)c3Cl)c2Cl)cc2c1[C@@H](NCC(=O)O)CC2` [Compound B-1], in assay [1], the maximal effect (Emax) was 89% and the EC50 is 1 to 10 µM. Further, the EC50 in assay [2] is 1 to 10 µM.

For the molecule `COc1cc(-c2cccc(-c3cccc(-c4cnc(CN5CC6(CCC(=O)N6)C5)c(OC)n4)c3Cl)c2Cl)cc2c1[C@H](N1CC3(CCC(=O)N3)C1)CC2` (single isomer, unassigned) [Compound A-8], in assay [1], the Emax came out at 145% and the EC50 was 0.1 to 1 µM. Further, the EC50 in assay [2] lay in the range of 1 to 10 µM. Also, in assay [3], the IC50 was not above 0.01 µM.

In the case of `COc1cc(-c2cccc(-c3cccc(-c4cnc(CN5CC(O)C5)c(OC)n4)c3Cl)c2Cl)cc2c1[C@@H](N1CC(O)C1)CC2` (single isomer, unassigned) [Compound A-9], in assay [1], the Emax came to 105%. For the same molecule, the EC50 in assay [1] lay within 0.1 to 1 µM; in assay [2], 1 to 10 µM. In addition, the IC50 in assay [3] was not above 0.01 µM.

Regarding `COc1nc(-c2cccc(-c3cccc(-c4cc5c(c(OC)n4)CCN(CC(=O)O)C5)c3Cl)c2Cl)cnc1CN1CC(O)(C(F)(F)F)C1` [Compound J-3], in assay [1], the EC50 lay within 1 to 10 µM. Also, in assay [3], the IC50 is not above 0.01 µM.

Molecule `COc1nc(-c2cccc(-c3cccc(-c4cc5c(c(OC)n4)[C@@H](N4CC(C(=O)O)C4)CC5)c3Cl)c2Cl)cnc1CN1CC(OC)C1` (single isomer, unassigned) [Compound H-3] registered an EC50 in assay [1] of 0.01 to 0.1 µM. The IC50 in assay [3] was not above 0.01 µM.

Molecule `COc1cc(-c2cccc(-c3cccc(-c4cnc(CN5CC6(CCC(=O)N6)C5)c(OC)n4)c3Cl)c2Cl)cc2c1[C@@H](N1CC3(CCC(=O)N3)C1)CC2` (single isomer, unassigned) [Compound A-7] displayed an Emax in assay [1] of 24%. For the same molecule, the IC50 in assay [3] was not above 0.01 µM.

As to `COc1nc(-c2cccc(-c3cccc(-c4cc5c(c(OC)n4)[C@H](N4CC6(CCC(=O)N6)C4)CC5)c3Cl)c2Cl)cnc1CN1CC2(CCC(=O)N2)C1` (single isomer, unassigned) [Compound C-4], the EC50 in assay [1] was more than 10 µM. Further, the IC50 in assay [3] was not above 0.01 µM.

On to `COc1cc(-c2cccc(-c3cccc(-c4cnc(CN5CC6(CCC(=O)N6)C5)c(OC)n4)c3Cl)c2Cl)cc2c1[C@@H](N1CC(C(=O)O)C1)CC2` (single isomer, unassigned) [Compound B-3], for which, in assay [1], the Emax was found to be 112% and the EC50 was 0.1 to 1 µM. The IC50 in assay [3] is not above 0.01 µM.
